Test results: publication PMC9024805, “Non-Effective Improvement of Absorption for Some Nanoparticle Formulations Explained by Permeability under Non-Sink Conditions” (Pharmaceutics, 2022)

How the values were obtained:
[1] = parameters: method as in PMID 17694546; conditions: cited from earlier work
[2] = Permeability under sink conditions (previous study / calculated for Figure 11); assay type: in vitro ADME; conditions: not told, given in Figure 11
Excerpt: To assess the impact of permeability under non-sink conditions, we compared it with that under sink conditions.

[3] = parameters: method as in PMID 33801447; conditions: previous study ref 25; cited from earlier work
[4] = Solubility from concentrations in the donor chambers; conditions: pH 6.5, 37 °C
Method: At 0, 30, 60, 120, 240 and 360 min, 100 μL of the acceptor chamber solution was withdrawn and diluted 2-fold. […] To measure the exact concentration in the donor chamber containing the nanosuspensions, the filtration method was applied according to a previous report [32]. Then, 100 μL of the filtered solution was diluted 2-fold. The sample concentration was determined by ultra-high-performance liquid chromatography (UHPLC).

SMILES | Papp using PAMPA relative to that of griseofulvin [1] | Papp [2] [nm/s] | Papp under sink conditions [3] [nm/s] | Effect of nanonization / particle size on solubility [4]
CC(=O)[C@H]1CC[C@H]2[C@@H]3CCC4=CC(=O)CC[C@]4(C)[C@H]3CC[C@]12C [progesterone] | 2–3 times | – | – | –
COC1=CC(=O)C[C@@H](C)[C@]12Oc1c(Cl)c(OC)cc(OC)c1C2=O [griseofulvin] | – | 2500 | 2470 | not improved by nanonization
